Data on 23 compounds can be found in patent US10202378B2, “Therapeutic compounds and uses thereof” (GENENTECH, INC., priority 2015, dated 2019).

The target in one test is TAF1-BD2 (Homo sapiens, UniProt P21675). Put plainly: TAF1-BD2 TR-FRET Binding Assay. Conditions: read-out: TAF1-BD2 HTRF IC50. As to the method: IC50 Measurements for Inhibitors Using TAF1-BD2 TR-FRET Binding Assay
His/Flag epitope tagged TAF1-BD21504-1635 was cloned, expressed, and purified to homogeneity. TAF1-BD2 binding and inhibition was assessed by monitoring the engagement of a biotinylated small molecule compound 1000 with the target using the TR-FRET assay technology (Perkin-Elmer). Specifically, in a 384 well ProxiPlate, TAF1-BD2 (0.012 uM final) in 50 mM HEPES (pH 7.5; final), 50 mM NaCl (final), 1 mM TCEP (final), 0.1 mg/mL BSA (final), and 0.069 mM Brij-35 (final) was added either in the presence of DMSO (final 0.2% DMSO) or compound dilution series in DMSO. After a 10 minute incubation at room temperature, biotin-ligand (0.04 uM final) was added. After 10 minutes incubation at room temperature, a mixture Eu-W1024 Anti-6×His antibody (Perkin Elmer AD0110) and SureLight™ Streptavidin-Allophycocyanin (SA-APC, Perkin Elmer CR130-100) were added to a final concentration of 0.2 nM antibody and 0.025 uM SA-APC, respectively. After forty minutes of equilibration at room temperature, the plates were read on an Envision instrument and IC50s calculated using a four parameter logistic model (XLFIT).
A general note: Time-resolved FRET reads energy transfer from a long-lived donor to a nearby acceptor.

A further test addresses TAF1-BD1 (Homo sapiens, UniProt P21675). The test is described as follows: TAF1-BD1 TR-FRET Binding Assay. To be noted: read-out: TAF1-BD1 HTRF IC50. As to the method:
IC50 Measurements for Inhibitors Using TAF1-BD1 TR-FRET Binding Assay
His/Flag epitope tagged TAF1-BD11381-1497 was cloned, expressed, and purified to homogeneity. TAF1-BD binding and inhibition was assessed by monitoring the engagement of a biotinylated small molecule compound 1000 with the target using the TR-FRET assay technology (Perkin-Elmer). Specifically, in a 384 well ProxiPlate, TAF1-BDI (0.08 uM final) in 50 mM HEPES (pH 7.5; final), 50 mM NaCl (final), 1 mM TCEP (final), 0.1 mg/mL BSA (final), and 0.069 mM Brij-35 (final) was added either in the presence of DMSO (final 0.2% DMSO) or compound dilution series in DMSO. After a 10 minute incubation at room temperature, biotin-ligand (0.08 uM final) was added. After 10 minutes incubation at room temperature, a mixture Eu-W1024 Anti-6×His antibody (Perkin Elmer ADO 110) and SureLight™ Streptavidin-Allophycocyanin (SA-APC, Perkin Elmer CR130-100) were added to final concentrations of 0.2 nM antibody and 0.05 uM SA-APC, respectively. After forty minutes of equilibration at room temperature, the plates were read on an Envision instrument and IC50s calculated using a four parameter logistic model (XLFIT).

In general, IC50 refers to the concentration at which inhibition is half-maximal. For `CCNC(=O)c1c(C)[nH]c2c(=O)n(C)cc(C#CC(C)(C)O)c12` [Example 168, N-ethyl-4-(3-hydroxy-3-methyl-but-1-ynyl)-2,6-dimethyl-7-oxo-1H-pyrrolo[2,3-c]pyridine-3-carboxamide], the values for the IC50 on TAF1-BD2 and on TAF1-BD1 were 1630 nM and 5790 nM, respectively.
`CCOC(=O)c1c(C)[nH]c2c(=O)n(C)cc(C#CC(O)(c3ccccc3)C(F)F)c12` (stereo not shown) [Example 89, ethyl 4-(4,4-difluoro-3-hydroxy-3-phenyl-but-1-ynyl)-2,6-dimethyl-7-oxo-1H-pyrrolo[2,3-c]pyridine-3-carboxylate]: the IC50 at TAF1-BD2 is 32.9 nM; on TAF1-BD1, 278 nM.
For `Cc1[nH]c2c(=O)n(C)cc(C#CC(C)(O)C3CC3)c2c1C(=O)OC(C)(C)CC#N` (stereo not shown) [Example 134, (2-cyano-1,1-dimethyl-ethyl)-4-(3-cyclopropyl-3-hydroxy-but-1-ynyl)-2,6-dimethyl-7-oxo-1H-pyrrolo[2,3-c]pyridine-3-carboxylate], the IC50 is 26.8 nM at TAF1-BD2 and 222 nM at TAF1-BD1.
On to `CCOC(=O)c1c(C)[nH]c2c(=O)n(C)cc(C#CC(C)(O)C3CC3)c12` (single isomer, unassigned) [Example 92b, ethyl 4-(3-cyclopropyl-3-hydroxy-but-1-ynyl)-2,6-dimethyl-7-oxo-1H-pyrrolo[2,3-c]pyridine-3-carboxylate], for which the IC50 at TAF1-BD2 turned out to be 230 nM; on TAF1-BD1, 1090 nM.
Consider `Cc1[nH]c2c(=O)n(C)cc(C#CC(C)(O)C3CC3)c2c1-c1nnc(C2CCOC2)o1` (single isomer, unassigned) [Example 96a, 4-(3-cyclopropyl-3-hydroxy-but-1-ynyl)-2,6-dimethyl-3-(5-tetrahydrofuran-3-yl-1,3,4-oxadiazol-2-yl)-1H-pyrrolo[2,3-c]pyridin-7-one], for which the IC50 at TAF1-BD2 amounted to 40.7 nM; on TAF1-BD1, 182 nM.
For the compound `Cc1[nH]c2c(=O)n(C)cc(C#CC(C)(C)O)c2c1C(=O)OC(C)(C)CC#N` [Example 163, (2-cyano-1,1-dimethyl-ethyl) 4-(3-hydroxy-3-methyl-but-1-ynyl)-2,6-dimethyl-7-oxo-1H-pyrrolo[2,3-c]pyridine-3-carboxylate], the values for the IC50 at TAF1-BD2 and at TAF1-BD1 were 27.3 nM and 283 nM, respectively.
The matching figures for `Cc1[nH]c2c(=O)n(C)cc(C#CC(C)(O)C3CC3)c2c1-c1nnc(C(C)(C)O)o1` (stereo not shown) [Example 172, 4-(3-cyclopropyl-3-hydroxy-but-1-ynyl)-3-(5-(1-hydroxy-1-methyl-ethyl)-1,3,4-oxadiazol-2-yl)-2,6-dimethyl-1H-pyrrolo[2,3-c]pyridin-7-one]: 110 nM and 451 nM.
For the compound `C=CCCn1cc(C#C[C@](C)(O)c2cc(C)on2)c2c(C(=O)OCC)c(C)[nH]c2c1=O` [Example 71, ethyl 6-but-3-enyl-4-[(3S)-3-hydroxy-3-(5-methylisoxazol-3-yl)but-1-ynyl]-2-methyl-7-oxo-1H-pyrrolo[2,3-c]pyridine-3-carboxylate], the IC50 is 190 nM on TAF1-BD2 and 2510 nM on TAF1-BD1.
Take `CCOC(=O)c1c(C)[nH]c2c(=O)n(C)cc(C#CC3(O)COC3)c12` [Example 30, ethyl 4-[2-(3-hydroxyoxetan-3-yl)ethynyl]-2,6-dimethyl-7-oxo-1H-pyrrolo[2,3-c]pyridine-3-carboxylate]: the IC50 at TAF1-BD2 is 87.3 nM; at TAF1-BD1, 634 nM.
The matching figures for `Cc1[nH]c2c(=O)n(C)cc(C#CC(O)(c3ccccc3)C(F)(F)F)c2c1C(=O)OC(C)c1ccccc1` (stereo not shown) [Example 104, 1-phenylethyl 2,6-dimethyl-7-oxo-4-(4,4,4-trifluoro-3-hydroxy-3-phenyl-but-1-ynyl)-1H-pyrrolo[2,3-c]pyridine-3-carboxylate]: 1200 nM and 3210 nM.
`C=CCCn1cc(C#CC(C)(C)O)c2c(C(=O)OCc3ccccc3C)c(C)[nH]c2c1=O` [Example 124, o-tolylmethyl 6-but-3-enyl-4-(3-hydroxy-3-methyl-but-1-ynyl)-2-methyl-7-oxo-1H-pyrrolo[2,3-c]pyridine-3-carboxylate]: the IC50 was 59.7 nM at TAF1-BD2 and above 20000 nM at TAF1-BD1.
Take `CCOC(=O)c1c(C)[nH]c2c(=O)n(C)cc(C#CC3CCCCC3)c12` [Example 79, ethyl 4-(2-cyclohexylethynyl)-2,6-dimethyl-7-oxo-1H-pyrrolo[2,3-c]pyridine-3-carboxylate]: the IC50 on TAF1-BD2 was 584 nM; at TAF1-BD1, 1330 nM.
As to `CCOC(=O)c1c(C)[nH]c2c(=O)n(C)cc(C#CC(C)(O)CCc3ccccc3)c12` (stereo not shown) [Example 23, ethyl 4-(3-hydroxy-3-methyl-5-phenyl-pent-1-ynyl)-2,6-dimethyl-7-oxo-1H-pyrrolo[2,3-c]pyridine-3-carboxylate], the IC50 at TAF1-BD2 turned out to be 58.6 nM; at TAF1-BD1 it was 182 nM.
For `CCOC(=O)c1c(C2CC2)[nH]c2c(=O)n(C)cc(C#CC(C)(C)O)c12` [Example 207, ethyl 2-cyclopropyl-4-(3-hydroxy-3-methyl-but-1-ynyl)-6-methyl-7-oxo-1H-pyrrolo[2,3-c]pyridine-3-carboxylate], the IC50 on TAF1-BD2 turned out to be 353 nM; at TAF1-BD1, 957 nM.
Take `CCOC(=O)c1c(C)[nH]c2c(=O)n(C)cc(C#CC(C)(O)CC#N)c12` (stereo not shown) [Example 35, ethyl 4-(4-cyano-3-hydroxy-3-methyl-but-1-ynyl)-2,6-dimethyl-7-oxo-1H-pyrrolo[2,3-c]pyridine-3-carboxylate]: the values for the IC50 at TAF1-BD2 and on TAF1-BD1 were 100 nM and 139 nM, respectively.
The matching figures for `CCOC(=O)c1c(C)[nH]c2c(=O)n(C)cc(C#CC(C)(C)C(=O)NC)c12` [Example 32, ethyl 4-[3,3-dimethyl-4-(methylamino)-4-oxo-but-1-ynyl]-2,6-dimethyl-7-oxo-1H-pyrrolo[2,3-c]pyridine-3-carboxylate]: 1320 nM and 802 nM.
The matching figures for `Cc1[nH]c2c(=O)n(C)cc(C#CC(O)(c3ccccc3)C(F)(F)F)c2c1C(=O)OCc1ccccc1C#N` (stereo not shown) [Example 107, (2-cyanophenyl)methyl 2,6-dimethyl-7-oxo-4-(4,4,4-trifluoro-3-hydroxy-3-phenyl-but-1-ynyl)-1H-pyrrolo[2,3-c]pyridine-3-carboxylate]: 344 nM and 1630 nM.
For `CCOC(=O)c1c(C)[nH]c2c(=O)n(C)cc(C#CC(O)(c3cccc(N4CCOCC4)c3)C(F)(F)F)c12` (stereo not shown) [Example 208, ethyl 2,6-dimethyl-7-oxo-4-[4,4,4-trifluoro-3-hydroxy-3-(3-morpholinophenyl)but-1-ynyl]-1H-pyrrolo[2,3-c]pyridine-3-carboxylate], the IC50 at TAF1-BD2 turned out to be 79.5 nM; on TAF1-BD1, 438 nM.
`CCOC(=O)c1c[nH]c2c(=O)n(C)cc(C#CC(C)(C)O)c12` [Example 53, ethyl 4-(3-hydroxy-3-methyl-but-1-ynyl)-6-methyl-7-oxo-1H-pyrrolo[2,3-c]pyridine-3-carboxylate]: the IC50 at TAF1-BD2 amounted to 95.2 nM; at TAF1-BD1 it was 859 nM.
Regarding `CCOC(=O)c1c(C)[nH]c2c(=O)n(C)cc(C#CC3(O)CCN(C)CC3)c12` [Example 9, ethyl 4-[2-(4-hydroxy-1-methyl-4-piperidyl)ethynyl]-2,6-dimethyl-7-oxo-1H-pyrrolo[2,3-c]pyridine-3-carboxylate], the values for the IC50 at TAF1-BD2 and on TAF1-BD1 were 815 nM and 14500 nM, respectively.
The matching figures for `CCOC(=O)c1c(C)[nH]c2c(=O)n(C)cc(C#CC3(O)CC3)c12` [Example 18, ethyl 4-[2-(1-hydroxycyclopropyl)ethynyl]-2,6-dimethyl-7-oxo-1H-pyrrolo[2,3-c]pyridine-3-carboxylate]: 85.4 nM and 632 nM.
As to `Cc1cc([C@](C)(O)C#Cc2cn(C)c(=O)c3[nH]c(C)c(-c4nnc(C(C)C)o4)c23)no1` [Example 194, 4-[(3R)-3-hydroxy-3-(5-methylisoxazol-3-yl)but-1-ynyl]-3-(5-isopropyl-1,3,4-oxadiazol-2-yl)-2,6-dimethyl-1H-pyrrolo[2,3-c]pyridin-7-one], the values for the half-inhibitory concentration (IC50) on TAF1-BD2 and on TAF1-BD1 were 69.1 nM and 244 nM, respectively.
`CCOC(=O)c1c(C)[nH]c2c(=O)n(C)cc(C#CC(O)(c3cccc(N)c3)C(F)(F)F)c12` (stereo not shown) [Example 2, ethyl 4-[3-(3-aminophenyl)-4,4,4-trifluoro-3-hydroxy-but-1-ynyl]-2,6-dimethyl-7-oxo-1H-pyrrolo[2,3-c]pyridine-3-carboxylate]: the IC50 turned out to be 45.3 nM at TAF1-BD2 and 249 nM at TAF1-BD1.
